Source: ChEMBL document CHEMBL1201862, “PubChem BioAssay data set” (2004)
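Dose response: 5 concentrations. Exposure: 48 h. Format: 96-well plates. Endpoint: linear interpolation; highest concentration if not reached. Here, GI50 denotes the concentration required for 50% inhibition of growth.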 Active and inactive are the calls of the source. Rule as the data show it: active = GI50 up to about 1.1 µM and inactive = higher.

Assays:
Experiment in all cases: NCI-60 cell line screen, 48 h
786-0 = system: 786-0
A549 = system: A549
ACHN = system: ACHN
CAKI-1 = system: CAKI-1
CCRF-CEM = system: CCRF-CEM
COLO 205 = system: COLO 205
DLD-1 = system: DLD-1
DMS-114 = system: DMS-114
DMS-273 = system: DMS-273
EKVX = system: EKVX
HCC 2998 = system: HCC 2998
HCT-15 = system: HCT-15
HL-60 = system: HL-60
HOP-62 = system: HOP-62
HOP-92 = system: HOP-92
IGROV-1 = system: IGROV-1
K562 = system: K562
KM-20L2 = system: KM-20L2
KM12 = system: KM12
LOX IMVI = system: LOX IMVI
LXFL 529 = system: LXFL 529
M14 = system: M14
M19-MEL = system: M19-MEL
MOLT-4 = system: MOLT-4
Malme-3M = system: Malme-3M
NCI-H23 = system: NCI-H23
NCI-H460 = system: NCI-H460
NCI-H522 = system: NCI-H522
OVCAR-3 = system: OVCAR-3
OVCAR-4 = system: OVCAR-4
OVCAR-5 = system: OVCAR-5
OVCAR-8 = system: OVCAR-8
RPMI-8226 = system: RPMI-8226
RXF 393 = system: RXF 393
SF-268 = system: SF-268
SF-295 = system: SF-295
SK-MEL-28 = system: SK-MEL-28
SK-MEL-2 = system: SK-MEL-2
SK-MEL-5 = system: SK-MEL-5
SK-OV-3 = system: SK-OV-3
SN12C = system: SN12C
SNB-19 = system: SNB-19
SNB-75 = system: SNB-75
SNB-78 = system: SNB-78
SW-620 = system: SW-620
TK-10 = system: TK-10
UACC-257 = system: UACC-257
UACC-62 = system: UACC-62
UO-31 = system: UO-31
XF498 = system: XF498
A498 = system: A498
HCT-116 = system: HCT-116
HT-29 = system: HT-29
SF-539 = system: SF-539
U-251 = system: U-251

## COc1cc2c(cc1OC)NC(=O)NC(Cc1ccc3c(c1)OCO3)CC2 (stereo not given)
786-0
  GI50: > 100 µM (inactive)
A549
  GI50: > 100 µM (inactive)
ACHN
  GI50: > 100 µM (inactive)
CAKI-1
  GI50: > 100 µM (inactive)
CCRF-CEM
  GI50: > 100 µM (inactive)
COLO 205
  GI50: > 100 µM (inactive)
DLD-1
  GI50: > 100 µM (inactive)
DMS-114
  GI50: > 100 µM (inactive)
DMS-273
  GI50: > 100 µM (inactive)
EKVX
  GI50: > 100 µM (inactive)
HCC 2998
  GI50: > 100 µM (inactive)
HCT-15
  GI50: > 100 µM
HL-60
  GI50: > 100 µM (inactive)
HOP-62
  GI50: 51.5 µM (inactive)
HOP-92
  GI50: 30.2 µM (inactive)
IGROV-1
  GI50: > 100 µM (inactive)
K562
  GI50: > 100 µM (inactive)
KM-20L2
  GI50: > 100 µM (inactive)
KM12
  GI50: > 100 µM (inactive)
LOX IMVI
  GI50: > 100 µM (inactive)
LXFL 529
  GI50: > 100 µM (inactive)
M14
  GI50: > 100 µM (inactive)
M19-MEL
  GI50: > 100 µM (inactive)
MOLT-4
  GI50: > 100 µM (inactive)
Malme-3M
  GI50: > 100 µM (inactive)
NCI-H23
  GI50: > 100 µM (inactive)
NCI-H460
  GI50: > 100 µM (inactive)
NCI-H522
  GI50: 29 µM (inactive)
OVCAR-3
  GI50: > 100 µM (inactive)
OVCAR-4
  GI50: > 100 µM (inactive)
OVCAR-5
  GI50: > 100 µM (inactive)
OVCAR-8
  GI50: > 100 µM (inactive)
RPMI-8226
  GI50: 83.9 µM (inactive)
RXF 393
  GI50: > 100 µM (inactive)
SF-268
  GI50: > 100 µM (inactive)
SF-295
  GI50: 84.5 µM (inactive)
SK-MEL-28
  GI50: > 100 µM (inactive)
SK-MEL-2
  GI50: > 100 µM (inactive)
SK-MEL-5
  GI50: > 100 µM (inactive)
SK-OV-3
  GI50: > 100 µM (inactive)
SN12C
  GI50: > 100 µM (inactive)
SNB-19
  GI50: > 100 µM (inactive)
SNB-75
  GI50: 24 µM (inactive)
SNB-78
  GI50: > 100 µM (inactive)
SW-620
  GI50: > 100 µM (inactive)
TK-10
  GI50: > 100 µM (inactive)
UACC-257
  GI50: > 100 µM (inactive)
UACC-62
  GI50: > 100 µM (inactive)
UO-31
  GI50: 76.9 µM (inactive)
XF498
  GI50: > 100 µM (inactive)

## Cc1cc(C)nc(NS(=O)(=O)c2ccc(Nc3c4ccc(Cl)cc4nc4c(C(=O)Nc5ccc(S(=O)(=O)N=C(N)N)cc5)cccc34)cc2)n1
786-0
  GI50: > 100 µM (inactive)
A498
  GI50: > 100 µM (inactive)
ACHN
  GI50: 96.6 µM (inactive)
CCRF-CEM
  GI50: 20.6 µM (inactive)
DLD-1
  GI50: > 100 µM (inactive)
DMS-114
  GI50: 41.7 µM (inactive)
EKVX
  GI50: > 100 µM (inactive)
HCC 2998
  GI50: > 100 µM (inactive)
HCT-116
  GI50: 54.3 µM (inactive)
HCT-15
  GI50: > 100 µM
HOP-62
  GI50: > 100 µM (inactive)
HT-29
  GI50: > 100 µM (inactive)
K562
  GI50: 73.5 µM (inactive)
KM-20L2
  GI50: > 100 µM (inactive)
KM12
  GI50: > 100 µM (inactive)
LOX IMVI
  GI50: 49.9 µM (inactive)
LXFL 529
  GI50: 66.7 µM (inactive)
M14
  GI50: > 100 µM (inactive)
M19-MEL
  GI50: > 100 µM (inactive)
MOLT-4
  GI50: 29 µM (inactive)
Malme-3M
  GI50: 78.7 µM (inactive)
NCI-H23
  GI50: > 100 µM (inactive)
NCI-H460
  GI50: > 100 µM (inactive)
NCI-H522
  GI50: 34.4 µM (inactive)
OVCAR-3
  GI50: 96.6 µM (inactive)
OVCAR-4
  GI50: > 100 µM (inactive)
OVCAR-5
  GI50: > 100 µM (inactive)
OVCAR-8
  GI50: > 100 µM (inactive)
RPMI-8226
  GI50: 45.4 µM (inactive)
RXF 393
  GI50: 29.4 µM (inactive)
SF-268
  GI50: 35.7 µM (inactive)
SF-295
  GI50: > 100 µM (inactive)
SF-539
  GI50: > 100 µM (inactive)
SK-MEL-28
  GI50: 77.6 µM (inactive)
SK-OV-3
  GI50: > 100 µM (inactive)
SN12C
  GI50: > 100 µM (inactive)
SNB-19
  GI50: > 100 µM (inactive)
SNB-75
  GI50: 57.7 µM (inactive)
SNB-78
  GI50: 39.9 µM (inactive)
TK-10
  GI50: 98.6 µM (inactive)
U-251
  GI50: 87.5 µM (inactive)
UACC-257
  GI50: > 100 µM (inactive)
UACC-62
  GI50: 70.8 µM (inactive)
UO-31
  GI50: > 100 µM (inactive)
XF498
  GI50: > 100 µM (inactive)
